{"source": "patent US20210186930A1", "about": "“Methods of Treating Renal Disease Associated With Chronic Kidney Disease Such as Alport Syndrome” (UNIVERSITY OF MIAMI, priority 2018, published 2021)", "key": {"Col4a3 knockout mice": {"system": "Col4a3 knockout mice", "experiment": "Fibrosis, lipid droplets, serum and kidney cortex lipids, CD36 in Col4a3 knockout mice treated with ezetimibe (FIG. 4)", "format": "in vivo, mouse", "experimental": "Determination of cholesterol content in kidney cortex: Tissue from kidney cortexes was homogenized in hypotonic buffer (10 mM HEPES pH7.0, 15 mM KCl, 1 mM MgCl2, 10 mM phosphatase inhibitors). Lipids from 100 μl of the homogenate were extracted with 1 ml of hexane:isopropanol (3:2, v/v), dried and reconstituted in 100 μl of isopropanol-NP40 (9:1, v/v). Tissue fractions not soluble in the organic solvent, were further dried, reconstituted in 8 M urea, and assayed for protein concentration using Pierce BCA protein assay kit (ThermoFisher Scientific, MA, USA). Total cholesterol from lipid extracts was determined by the enzymatic method as previously described (Robinet, P., Wang, Z., Hazen, S. L. & Smith, J. D. A simple and sensitive enzymatic method for cholesterol quantification in macrophages and foam cells. Journal of lipid research 51, 3364-3369, 2010). Briefly, endogenous peroxides present were eliminated by incubating samples and standards with catalase (Sigma-Aldrich, MO, USA), 45 U/ml final concentration, for 15 min at 37° C. Then, 50 μl of samples and standards were mixed with 50 μl of reagent A (2 U/ml cholesterol oxidase (Sigma-Aldrich, MO, USA), 0.6 U/ml cholesterol esterase (MP Biomedicals), 2 U/ml HRP (Sigma), 100 μM Amplex Red (ThermoFisher Scientific, MA, USA) in black 96-well plates. The plates were incubated at 37° C. for 30 min and fluorescence was read at 530 nm (Ex) and 580 nm (Em) in a plate reader (SpectraMax M5, Molecular Devices, CA, USA). Cholesteryl esters (CE) quantification was based on the method described from Toshimi M, et al. Briefly, 25 μl of samples was mixed with 150 μl of free cholesterol decomposition reagent (45 U/ml catalase, 1 U/ml cholesterol oxidase) and incubated 2-4 h at 37° C., and then the final volume was brought up to 250 μl prior to determining free and total cholesterol remaining. Total cholesterol remaining was determined by mixing 50 μl of end product reaction with 50 μl of reagent A, as described above. Free cholesterol remaining was determined similarly, but without including cholesterol esterase in the reagent. CE was calculated by the formula CE=(TC−FC)×DF, where TC is the total cholesterol remaining, FC the free cholesterol remaining and DF the dilution factor, in this case, 10.\nLipid content: Oil Red 0 staining was performed on frozen tissue sections and triglyceride content was determined on snap frozen kidney tissue as described above.\nMouse models: Mice in which exon 5 of a3 chain of collagen type IV is deleted (Col4a3 KO) were obtained from the Jackson Laboratory (#002908, 129-Col4a3tm1Dec/J). Col4a3 heterozygous littermates were bred to generate Col4a3 KO mice. Four groups of mice with n=3-10 per group were studied. The four groups consisted of: 1) wildtype controls+vehicle, 2) wildtype controls+ezetimibe, 3) Col4a3 KO+vehicle, 4) Col4a3 KO+ezetimibe. ezetimibe was administered by oral gavage daily starting at 4 weeks of age at a concentration of 5 mg/kg body weight. […] Mice were sacrificed at 8 weeks of age when progression to end-stage renal failure had occurred.\nSerology: Immediately prior to sacrifice, a blood sample was collected for the determination of BUN and lipid panel analysis in the comparative laboratory core facility of the University of Miami. Serum creatinine was determined by tandem mass spectrometry (UAB-UCSD O'Brien Core Center, University of Alabama).\nPicrosirius red staining: Paraffin-embedded sections (4 μm thick) were deparaffinized with xylene and a graded alcohol series. Sections were rinsed for 5 min in distilled water, stained for 1 hour with picrosirius red in saturated aqueous picric acid, examined under a light microscope and photomicrographs were taken. Histological images were visualized using a light microscope (Olympus BX 41, Tokyo, Japan) at 40× magnification and analyzed using Image J software."}, "Col4a3−/− mice": {"system": "Col4a3−/− mice", "experiment": "Renal function in Col4a3-/- mice treated with ezetimibe, ramipril or both (Example 1, FIG. 5)", "format": "in vivo, mouse", "details": "vs untreated Col4a3−/−", "text": "Albumin/creatinine ratio: All albuminuria values are expressed as μg albumin/mg creatinine. Albumin/creatinine determined by ELISA (Bethyl Laboratories) for albumin detection and a biochemical assay based on the Jaffe method for creatinine detection (Stanbio) as previously described. Serology: Immediately prior to sacrifice, a blood sample was collected for the determination of BUN and lipid panel analysis in the comparative laboratory core facility of the University of Miami. Serum creatinine was determined by tandem mass spectrometry (UAB-UCSD O'Brien Core Center, University of Alabama). The following experiment was performed to investigate which treatment, ezetimibe (EZ), ramipril (Ramp) or the combination of both drugs (EZ+Ramp), would best preserve renal function in Col4a3 knockout mice, all drugs were administered to 4-week-old Col4a3−/− mice for 4 weeks as follows: ezetimibe (Ez) was orally administered at a concentration of 5 mg/kg BW, ramipril was added to the drinking water at a concentration that would lead to a daily ramipril uptake of 10 mg/kg BW. All mice were sacrificed at 8 weeks of age. The following four groups of mice were analyzed: Col4a3^+/+, Col4a3^−/−+Ez, Col4a3^−/−+Ramp and Col4a3^−/−+Ez+Ramp."}, "[1]": {"details": "Col4a3 knockout mice, ezetimibe treated vs untreated"}, "[2]": {"details": "Col4a3−/− mice treated 4 weeks, ezetimibe 5 mg/kg, ramipril 10 mg/kg"}}, "note": "“Also recorded” adds a separate entry of the source.", "data": [{"smiles": "O=C1[C@H](CC[C@H](O)c2ccc(F)cc2)[C@@H](c2ccc(O)cc2)N1c1ccc(F)cc1", "note": "[ezetimibe]", "values": [{"measurement": "total cholesterol levels in kidney cortexes", "setting": "Col4a3 knockout mice; Col4a3 knockout mice, ezetimibe treated or untreated", "value": "No change in total cholesterol levels"}, {"measurement": "fibrosis (PicroSirius Red staining)", "setting": "Col4a3 knockout mice; [1]", "value": "significant reduction of fibrosis"}, {"measurement": "glomerular lipid droplets (Oil Red O staining)", "setting": "Col4a3 knockout mice; [1]", "value": "significant reduction of glomerular lipid droplets"}, {"measurement": "serum triglyceride levels", "setting": "Col4a3 knockout mice; [1]", "value": "significantly decreased"}, {"measurement": "total serum cholesterol levels", "setting": "Col4a3 knockout mice; [1]", "value": "significantly decreased"}, {"measurement": "triglyceride content in kidney cortexes", "setting": "Col4a3 knockout mice; [1]", "value": "significantly reduces triglyceride content"}, {"measurement": "CD36 expression", "setting": "Col4a3 knockout mice; ezetimibe treated Col4a3 knockout mice (untreated knockout also increased)", "value": "significantly increased"}, {"measurement": "ratio of esterified to total cholesterol in kidney cortexes", "setting": "Col4a3 knockout mice; ezetimibe treated Col4a3 knockout mice compared to controls (untreated knockout also increased)", "value": "significantly increased"}, {"measurement": "albumin/creatinine ratio (ACR)", "setting": "Col4a3−/− mice; 4-week-old Col4a3−/− mice treated 4 weeks, ezetimibe 5 mg/kg BW oral, ramipril 10 mg/kg BW in drinking water", "value": "significant reduction in the albumin/creatinine ratio; also recorded: significant decrease in the albumin/creatinine ratio"}, {"measurement": "serum BUN levels", "setting": "Col4a3−/− mice; [2]", "value": "significant reduction in the serum BUN levels"}, {"measurement": "serum creatinine levels", "setting": "Col4a3−/− mice; [2]", "value": "significant reduction in the serum creatinine levels"}]}]}
